{"source": "patent US10383960B2", "about": "“Small molecule imaging of fungi by positron emission tomography scanning” (The United States of America, as represented by the …, priority 2013, dated 2019)", "test_system": "Aspergillus", "excerpt": "Compounds such as calcofluor can be used for visualizing a broad range of medically relevant fungi under the microscope, due to their specific nature of binding, high level fluorescence (detectable under the microscope) and low binding to patient tissue. Calcofluor is a fairly non-toxic compound that is used to dye clothes, due to its high affinity for cellulose-containing cotton fibers. It has also been used to follow ground water migration due to its fluorescent properties and low toxicity."}
{"smiles": "O=S(=O)([O-])c1cc(Nc2nc(Nc3ccccc3)nc(N(CCO)CCO)n2)ccc1C=Cc1ccc(Nc2nc(Nc3ccccc3)nc(N(CCO)CCO)n2)cc1S(=O)(=O)[O-].[Na+].[Na+]", "note": "[calcofluor]", "values": [{"measurement": "recovery of injected compound in lung tissue", "setting": "in vivo", "result": "could be recovered in harvested lung tissue"}, {"measurement": "fluorescent staining of fungal hyphae in lung tissue", "setting": "microscope, lung tissue removed from subject infected with Aspergillus", "result": "demonstrated fluorescent fungal hyphal forms under the microscope"}]}
